Molecules are shown by their SMILES. Where only a bound is given, the exact number is not on record here.

This assay deals with Polymerase acidic protein (Influenza A virus (A/Puerto Rico/8/1934(H1N1)), UniProt P03433). Briefly: Inhibition of cap 1 ALMV primed Influenza transcriptase.
Usually IC50 stands for the concentration that inhibits the measured activity by half. As for `O=C(O)/C(O)=C/c1nc2ccccc2o1`, the IC50 is 100 µM.

`CC(=O)/C=C(\O)C(=O)O`: the IC50 is 307 µM.

With `Cn1c(/C=C(\O)C(=O)O)nc2ccccc21`, the IC50 is greater than 500 µM.

`O=C(O)C(=O)CCc1ccccc1`: the IC50 was greater than 500 µM.

Consider `NC(CC(=O)c1ccccc1)C(=O)O` (stereo not drawn), for which the IC50 was greater than 500 µM.

For `O=C(CC(O)C(=O)O)c1ccccc1` (stereo not drawn), the IC50 was greater than 500 µM.

For the molecule `O=C(O)/C(O)=C/C(=O)C1(Cc2ccc(Cl)cc2)CCCN(S(=O)(=O)Cc2ccccc2)C1` (stereo not drawn), the IC50 amounted to 0.19 µM.

On to `NC(=O)/C(O)=C/C(=O)C1CCCCC1`, for which the IC50 was greater than 500 µM.

In the case of `CC(C)C(=O)/C=C(\O)C(=O)O`, the IC50 is 56.7 µM.

Molecule `O=C(O)/C(O)=C/C(=O)C1CCCCC1` displayed an IC50 of 29.4 µM.

As to `O=C(O)/C(O)=C/c1nc2ccccc2s1`, the IC50 was greater than 500 µM.

The molecule `O=C(O)/C(O)=C/c1cc2ccccc2o1` came in with a 50% inhibitory concentration (IC50) greater than 500 µM.

For the molecule `O=C(O)/C(O)=C/S(=O)(=O)c1ccccc1`, the IC50 was greater than 500 µM.

The values are drawn from ChEMBL document CHEMBL2040549, “Inhibition of cap (m7GpppXm)-dependent endonuclease of influenza virus by 4-substituted 2,4-dioxobutanoic acid compounds” (Antimicrob Agents Chemother, 1994).
